According to patent publication US9951044B2, “Quinazoline derivatives and their use as DNA methyltransferase inhibitors” (PIERRE FABRE MEDICAMENT, priority 2013, dated 2018):
Where two headings read alike, the source gives them in different places.

Experiments:
[1] = target: T1, human C-terminal DNMT3A (a.a. 623-908) (Homo sapiens, UniProt Q9Y6K1); assay: DNMT3A assay (restriction-based fluorescence); assay type: biochemical; details: for inhibition at 10 µM: read-out: DNMT3A (% of inhibition) 10 μM; for inhibition at 32 µM: read-out: DNMT3A (% of inhibition) 32 μM; for EC50: concentration range in triplicates; for inhibition at 20 µM: compound at 20 μM
T1 construct: The human C-terminal DNMT3A (a.a. 623-908); made in house
T1 sequence (Q9Y6K1 627-912 limits assumed): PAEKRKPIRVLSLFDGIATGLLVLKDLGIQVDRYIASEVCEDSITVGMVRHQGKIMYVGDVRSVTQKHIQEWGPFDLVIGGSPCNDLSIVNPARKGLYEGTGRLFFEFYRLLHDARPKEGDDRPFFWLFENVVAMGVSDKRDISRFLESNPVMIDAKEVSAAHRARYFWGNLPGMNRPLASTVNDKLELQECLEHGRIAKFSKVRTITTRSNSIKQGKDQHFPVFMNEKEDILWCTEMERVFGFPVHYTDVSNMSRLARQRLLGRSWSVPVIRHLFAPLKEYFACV
Text: DNMT3A enzyme inhibition was adapted from the restriction-based fluorescence assay protocol described in Ceccaldi et al. (ChemBioChem 2011, 12, 1337-45). Briefly, a 5′-labelled biotin oligonucleotide is hybridized to its complementary strand labelled with 6-carboxyfluorescein at the 3′-end into a 384 well microplate (black Optiplates; Perkin Elmer) pre-coated with avidin. The duplex contains a unique CpG site overlapping with a restriction site of a methylation sensitive restriction enzyme. The human C-terminal DNMT3A (a.a. 623-908), produced as described in Gros et al. (Nucleic Acids Research 2013 Aug. 25), was added in each well (200 ng/well) and mixed with the chemical compounds at desired concentrations and freshly prepared AdoMet (20 μM final concentration) to start the reaction in a total volume of 50 μL. After 1 hour incubation at 37° C. each well were washed three times with PBS, Tween-20 0.05%, NaCl (500 mM) and three more times with PBST. Specific fluorescent signals were detected with the methylation-sensitive restriction enzyme HpyCH4IV (NEB) as described and measured on a Perkin Elmer Envision detector. The percentage of inhibition is reported. The formula used to calculate the percentage of inhibition is [(X−Y)/X]×100, where X is the signal determined in the absence of the inhibitor and Y is the signal obtained in the presence of the inhibitor. The concentration at which 50% of efficacy of inhibition is observed (EC50) was determined by analysis of a concentration range of the tested compound in triplicates. The non-linear regression fittings with sigmoidal dose-response (variable slope) were performed with GraphPad Prism 4.03 (GraphPad Software).

[2] = target: T2, His-DNMT1 (182 kDa, human) (Homo sapiens, UniProt P26358); assay: DNMT1 assay ([methyl-3H] SAM Flashplate); assay type: biochemical; details: for inhibition at 100 µM: read-out: DNMT1 (% of inhibition) 100 μM; for inhibition at 32 µM: read-out: DNMT1 (% of inhibition) 32 μM
T2 construct: His; made in house
T2 sequence (P26358 whole entry): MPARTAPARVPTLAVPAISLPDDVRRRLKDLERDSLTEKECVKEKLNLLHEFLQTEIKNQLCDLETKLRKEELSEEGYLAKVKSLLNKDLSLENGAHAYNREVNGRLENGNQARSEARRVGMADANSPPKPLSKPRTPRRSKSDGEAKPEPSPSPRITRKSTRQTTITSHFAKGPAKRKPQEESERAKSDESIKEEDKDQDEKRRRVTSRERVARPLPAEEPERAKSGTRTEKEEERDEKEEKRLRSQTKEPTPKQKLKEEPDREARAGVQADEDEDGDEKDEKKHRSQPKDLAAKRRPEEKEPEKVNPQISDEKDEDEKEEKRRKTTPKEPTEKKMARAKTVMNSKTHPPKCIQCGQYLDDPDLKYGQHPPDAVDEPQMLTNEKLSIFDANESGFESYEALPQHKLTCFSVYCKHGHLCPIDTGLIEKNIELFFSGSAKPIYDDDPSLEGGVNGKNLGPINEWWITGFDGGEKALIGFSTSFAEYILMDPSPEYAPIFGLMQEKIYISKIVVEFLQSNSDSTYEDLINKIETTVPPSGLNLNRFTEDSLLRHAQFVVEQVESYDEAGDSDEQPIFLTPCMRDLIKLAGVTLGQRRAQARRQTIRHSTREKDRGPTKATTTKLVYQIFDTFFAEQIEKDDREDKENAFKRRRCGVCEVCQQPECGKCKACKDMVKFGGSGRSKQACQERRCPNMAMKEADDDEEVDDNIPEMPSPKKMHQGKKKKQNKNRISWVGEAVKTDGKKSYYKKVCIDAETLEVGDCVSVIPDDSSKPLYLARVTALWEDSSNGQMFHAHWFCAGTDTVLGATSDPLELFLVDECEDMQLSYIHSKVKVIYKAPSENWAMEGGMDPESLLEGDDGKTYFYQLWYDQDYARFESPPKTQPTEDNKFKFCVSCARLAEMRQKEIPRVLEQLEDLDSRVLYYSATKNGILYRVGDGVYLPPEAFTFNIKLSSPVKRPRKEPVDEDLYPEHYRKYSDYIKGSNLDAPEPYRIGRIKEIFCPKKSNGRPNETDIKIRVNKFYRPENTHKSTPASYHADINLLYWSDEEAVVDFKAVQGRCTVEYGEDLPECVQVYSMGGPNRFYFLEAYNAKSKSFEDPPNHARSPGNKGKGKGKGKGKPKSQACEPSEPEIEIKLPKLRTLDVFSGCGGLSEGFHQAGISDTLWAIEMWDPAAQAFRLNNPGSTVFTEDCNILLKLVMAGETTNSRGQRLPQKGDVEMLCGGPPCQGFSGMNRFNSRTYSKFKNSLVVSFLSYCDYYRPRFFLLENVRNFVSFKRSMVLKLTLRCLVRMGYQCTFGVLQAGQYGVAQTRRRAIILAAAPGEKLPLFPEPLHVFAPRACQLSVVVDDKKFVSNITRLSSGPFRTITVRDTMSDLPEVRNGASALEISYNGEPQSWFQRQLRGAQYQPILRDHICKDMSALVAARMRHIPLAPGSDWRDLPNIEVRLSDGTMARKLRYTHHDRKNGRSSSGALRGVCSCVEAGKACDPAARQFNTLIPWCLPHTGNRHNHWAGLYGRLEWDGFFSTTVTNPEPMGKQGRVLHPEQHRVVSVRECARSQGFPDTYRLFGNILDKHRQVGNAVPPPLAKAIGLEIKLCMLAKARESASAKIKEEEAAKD
Experimental: His-DNMT1 (182 kDa, human) was cloned, expressed and purified as described in Halby et al. (ChemBioChem 2012, 13, 157-65). The reaction was performed in a 10 μL total reaction volume in low volume NBS™ 384-well microplates (Corning), containing the tested compound (up to 1% DMSO), 1 μM of a SAM/[methyl-^3H] SAM (3 TBq/mmol, PerkinElmer) mix in a ratio of 3-to-1 (isotopic dilution 1*:3), 0.3 μM of biotinylated hemimethylated DNA duplex (5′-GATmCGCmCGATGmCGmCGAATmCGmCGAT mCGATGmCGAT-3′ and BIOT-5′-[…] ATC-3′), and 90 nM of DNMT1 in methylation buffer (20 mM HEPES pH 7.2, 1 mM EDTA, 50 mM KCl, 25 μg/mL BSA). The reaction was incubated at 37° C. for 2 hours. 8 μL are then transferred into a streptavidin 96-well scintillant coated Flashplate™ (PerkinElmer) containing 190 μL of 20 μM SAH in 50 mM Tris-HCl pH 7.4. The Flashplate™ was agitated at room temperature for 1 hour, washed three times with 200 μL of 0.05% Tween®-20 in 50 mM Tris-HCl pH 7.4, and read in 200 μL of 50 mM Tris-HCl pH 7.4 on TopCount NXT (PerkinElmer).

Row | SMILES | inhibition at 10 µM ([1]; compound at 10 μM) [%] | inhibition at 32 µM ([1]; compound at 32 μM) [%] | EC50 [1] [µM] | inhibition at 100 µM ([2]; compound at 100 μM) [%] | inhibition at 32 µM ([2]; compound at 32 μM) [%] | other results
1 | Clc1cccc(CCNc2ncnc3cc(OCC4CCN(CCNc5ccnc6ccccc56)CC4)ccc23)c1 [AA, 4-(2-(3-chlorophenyl)ethylamino)-7-((1-(2-(quinolin-4-ylamino)ethyl)piperidin-4-yl)methoxy)quinazoline] | 82 | 91 | 2.7 | 97 | – | –
2 | Clc1ccccc1CCNc1ncnc2cc(OCC3CCN(CCNc4ccnc5ccccc45)CC3)ccc12 [AB, 4-(2-(2-chlorophenyl)ethylamino)-7-((1-(2-(quinolin-4-ylamino)ethyl)piperidin-4-yl)methoxy)quinazoline] | – | 100 | – | 97 | 42 | –
3 | Clc1ccc(CCNc2ncnc3cc(OCC4CCN(CCNc5ccnc6ccccc56)CC4)ccc23)cc1 [AC, 4-(2-(4-chlorophenyl)ethylamino)-7-((1-(2-(quinolin-4-ylamino)ethyl)piperidin-4-yl)methoxy)quinazoline] | 88 | 100 | 1.9 | 97 | 75 | –
4 | NS(=O)(=O)c1ccc(CCNc2ncnc3cc(OCC4CCN(CCNc5ccnc6ccccc56)CC4)ccc23)cc1 [AD, 4-(2-(4-sulfonamidophenyl)ethylamino)-7-((1-(2-(quinolin-4-ylamino)ethyl)piperidin-4-yl)methoxy)quinazoline] | – | 93 | – | 100 | 59 | –
5 | O=[N+]([O-])c1ccc(CCNc2ncnc3cc(OCC4CCN(CCNc5ccnc6ccccc56)CC4)ccc23)cc1 [AE, 4-(2-(4-nitrophenyl)ethylamino)-7-((1-(2-(quinolin-4-ylamino)ethyl)piperidin-4-yl)methoxy)quinazoline] | 61 | 72 | 1.1 | 74 | 54 | –
6 | CC(C)c1ccc(CCNc2ncnc3cc(OCC4CCN(CCNc5ccnc6ccccc56)CC4)ccc23)cc1 [AF, 4-(2-(4-isopropylphenyl)ethylamino)-7-((1-(2-(quinolin-4-ylamino)ethyl)piperidin-4-yl)methoxy)quinazoline] | 53 | 83 | – | – | – | –
7 | COc1ccc(CCNc2ncnc3cc(OCC4CCN(CCNc5ccnc6ccccc56)CC4)ccc23)cc1 [AG, 4-(2-(4-methoxyphenyl)ethylamino)-7-((1-(2-(quinolin-4-ylamino)ethyl)piperidin-4-yl)methoxy)quinazoline] | 82 | 100 | – | 59 | 77 | –
8 | Nc1ccc(CCNc2ncnc3cc(OCC4CCN(CCNc5ccnc6ccccc56)CC4)ccc23)cc1 [AH, 4-(2-(4-aminophenyl)ethylamino)-7-((1-(2-(quinolin-4-ylamino)ethyl)piperidin-4-yl)methoxy)quinazoline] | 68 | 96 | – | 97 | 59 | –
9 | c1ccc2c(NCCNc3ncnc4cc(OCC5CCN(CCNc6ccnc7ccccc67)CC5)ccc34)ccnc2c1 [AI] | 86 | 99 | 1 | 99 | 99 | –
10 | c1ccc(NCCNc2ncnc3cc(OCC4CCN(CCNc5ccnc6ccccc56)CC4)ccc23)cc1 [AK, 4-(2-(phenylamino)ethylamino)-7-((1-(2-(quinolin-4-ylamino)ethyl)piperidin-4-yl)methoxy)quinazoline] | 76 | 5 | – | 93 | 93 | –
11 | c1ccc(CN2CCC(Nc3ncnc4cc(OCC5CCN(CCNc6ccnc7ccccc67)CC5)ccc34)CC2)cc1 [AL] | 72 | 93 | 8 | 81 | 81 | –
12 | Clc1ccc2c(NCCN3CCC(COc4ccc5c(NCCCc6ccccc6)ncnc5c4)CC3)ccnc2c1 [AO, 4-((3-phenylpropyl)amino)-7-((1-(2-(7-chloroquinolin-4-ylamino)ethyl)piperidin-4-yl)methoxy)quinazoline] | – | – | – | – | – | inhibition at 10 µM [1]: 70%; inhibition at 32 µM [1]: 62%; inhibition at 100 µM [2]: 79%
13 | COc1ccc2c(NCCN3CCC(COc4ccc5c(NCCCc6ccccc6)ncnc5c4)CC3)ccnc2c1 [AP, 4-((3-phenylpropyl)amino)-7-((1-(2-(7-methoxyquinolin-4-ylamino)ethyl)piperidin-4-yl)methoxy)quinazoline] | – | – | 2.6 | – | – | inhibition at 10 µM [1]: 70%; inhibition at 32 µM [1]: 80%; inhibition at 100 µM [2]: 90%
14 | COc1cc2nccc(NCCN3CCC(COc4ccc5c(NCCCc6ccccc6)ncnc5c4)CC3)c2cc1OC [AQ, 4-((3-phenylpropyl)amino)-7-((1-(2-(6,7-dimethoxyquinolin-4-ylamino)ethyl)piperidin-4-yl)methoxy)quinazoline] | – | – | – | – | – | inhibition at 10 µM [1]: 95%; inhibition at 32 µM [1]: 95%; inhibition at 32 µM [2]: 61%; inhibition at 100 µM [2]: 100%
15 | CN(CCN1CCC(COc2ccc3c(NCCCc4ccccc4)ncnc3c2)CC1)c1ccnc2ccccc12 [AR, 4-((3-phenylpropyl)amino)-7-((1-(2-(methyl(quinolin-4-yl)amino)ethyl)piperidin-4-yl)methoxy)quinazoline] | – | – | 4.7 | – | – | inhibition at 10 µM [1]: 66%; inhibition at 32 µM [1]: 66%
16 | c1ccc(CCCNc2ncnc3cc(OCC4CCN(CCNc5ccc6ncccc6c5)CC4)ccc23)cc1 [AS, 4-((3-phenylpropyl)amino)-7-((1-(2-(quinolin-6-ylamino)ethyl)piperidin-4-yl)methoxy)quinazoline] | – | – | – | – | – | inhibition at 10 µM [1]: 60%; inhibition at 32 µM [1]: 60%
17 | c1ccc(CCCNc2ncnc3cc(OCC4CCN(CCNc5ccnc6ccccc56)C4)ccc23)cc1 (centres unmarked) [Compound AM, 4-((3-phenylpropyl)amino)-7-((1-(2-(quinolin-4-ylamino)ethyl)pyrrolidin-3-yl)methoxy)quinazoline] | – | 81 | – | 100 | – | –
18 | Nc1ccc(NCCN2CCC(COc3ccc4c(NCCCc5ccccc5)ncnc4c3)CC2)cc1 [Compound AN] | – | 65 | – | – | – | –
19 | c1ccc(CCCNc2ncnc3cc(OCCCNCCCNc4ccnc5ccccc45)ccc23)cc1 [Compound A] | 60 | 85 | 10 | 97 | – | inhibition at 20 µM [1]: 76%
20 | c1ccc(CCCNc2ncnc3cc(OCCCNCCCCNc4ccnc5ccccc45)ccc23)cc1 [Compound B] | – | – | – | 86 | – | inhibition at 20 µM [1]: 67%
21 | O=CN(CCCNc1ccnc2ccccc12)CCCOc1ccc2c(NCCCc3ccccc3)ncnc2c1 [Compound E, N-(3-((4-((3-phenylpropyl)amino)quinazolin-7-yl)oxy)propyl)-N-(3-(quinolin-4-ylamino)propyl)formamide] | – | 51 | – | – | – | inhibition at 20 µM [1]: 27%
22 | c1ccc(CCCNc2ncnc3cc(OCCCNCCNc4ccnc5ccccc45)ccc23)cc1 [Compound F, 7-(3-((2-(quinolin-4-ylamino)ethyl)amino)propyloxy)-4-((3-phenylpropyl)amino)quinazoline] | 59 | 87 | 10 | 90 | – | inhibition at 20 µM [1]: 76%
23 | COCn1ccc(NCCN2CCC(COc3ccc4c(NCCCc5ccccc5)ncnc4c3)CC2)nc1=O [Compound K, 1-(methoxymethyl)-N^4-(2-(4-(((4-((3-phenylpropyl)amino)quinazolin-7-yl)oxy)methyl)piperidin-1-yl)ethyl)cytosine] | 10 | 44 | – | – | – | inhibition at 20 µM [1]: 40%
